Test results published in patent US20240307409A1, “ARGININE METHYLTRANSFERASE INHIBITOR AND USE THEREOF” (Cytosinlab Therapeutics Co., Ltd., priority 2021, published 2024).

Legend:
PRMT1 = PRMT1 (Homo sapiens, UniProt Q99873); assay: PRMT1 enzyme activity test; assay type: biochemical; details: 0.5 nM PRMT1, 3H-SAM, peptide
Outline: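 Radiometric methylation assay: 0.5 nM PRMT1 preincubated 15 min at room temperature with compound (10-point 3-fold series, 1% DMSO) in pH 8.0 Tris buffer with Tween-20 and DTT. 0.25 uM ³H-SAM and 0.1 uM biotinylated peptide then reacted 120 min. Product captured on streptavidin FlashPlate and counted; IC50 from four-parameter fit of % inhibition.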

Toledo cells = assay: Toledo cell proliferation inhibition assay; assay type: cell-based; details: Homo sapiens, Toledo, 144 h; six-day assay, CellTiter-Glo
Outline: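 Toledo cells seeded at 2000 cells/well in RPMI 1640 + 10% FBS and incubated with compound for six days at 37° C, 5% CO2. Viability was then read by CellTiter-Glo luminescence after 30 min orbital mixing.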

MMA in RKO cells = assay: RKO In Cell Western assay (MMA primary antibody); assay type: cell-based; details: Homo sapiens, 72 hours, read-out: RKO ICW_EC30
Protocol: RKO was seeded at a concentration of 20,000 cells/ml into a polylysine-coated 96-well plate (Corning #3599), with 2,000 cells per well and 100 μL of culture mediumper well. 500 nL of compound was added to the 96-well plate. 3) The 96-well plate was incubated in a 37° C., 5% CO2 incubator for 72 hours. After three days, the 96-well plate was taken from the incubator, 100 μL of 8% paraformaldehyde solution was added to each well, and the plate was placed at room temperature for 15 min. After 15 min, the liquid in the plate was shaken out and the plate was washed three times with phosphate buffer (1*PBS). The liquid in the plate was shaken out and 200 μL of membrane-breaking buffer (0.1% (v/v) Tween-20 in PBS) was added and the plate was incubated on a shaker for 30 min. After half an hour, the liquid in the plate was shaken out, and blocking buffer was added and the plate was incubated for two hours at room temperature with shaking. After that, the liquid in the plate was shaken off, and the blocking solution containing primary antibody (MMA primary antibody, CST #8711S, 1:1000 v/v) was added to the 96-well plate and the plate was incubated at 4° C. overnight with shaking. The next day, the plate was washed three times with washing solution (0.05% (v/v) Tween-20 in PBS), and a blocking solution containing secondary antibody (goat anti-rabbit IgG (H+L) Invitrogen #31460, 1:10,000 v/v) was added and the plate was incubated for two hours at room temperature. Afterwards, the 96-well plate was washed four times with washing solution. The TMB mixture was added to the 96-well plate and then the plate was incubated for 15 minutes at room temperature with shaking. After that, the reaction terminating solution was added, and the value was read at OD450 nm using an microplate reader. The plate was washed three times with washing solution, and 50 μL of janusgreen staining solution was added, and the plate was incubated for 15 minutes at room temperature with shaking. The reaction was washed ten times with water until no color residue was left. 200 μL of 0.5 M hydrochloric acid solution was added to each well and the plate was incubated for 10 min at room temperature. The value was read at OD595 nm using Flexstation.
Firstly, the ratio OD450/OD595 was calculated for each well
Each plate had six DMSO negative control groups (ZPE) and six 10 μM positive control groups (HPE), and the average of the control group ratios was used to determine the percentage of activation for each test well. The compounds to be tested were triple diluted with DMSO for a total of 8 concentration points with a starting concentration of 5 μM. The equation for calculating the activation percentage of each test well was: […]

PRMT1, sequence (Q99873 whole entry): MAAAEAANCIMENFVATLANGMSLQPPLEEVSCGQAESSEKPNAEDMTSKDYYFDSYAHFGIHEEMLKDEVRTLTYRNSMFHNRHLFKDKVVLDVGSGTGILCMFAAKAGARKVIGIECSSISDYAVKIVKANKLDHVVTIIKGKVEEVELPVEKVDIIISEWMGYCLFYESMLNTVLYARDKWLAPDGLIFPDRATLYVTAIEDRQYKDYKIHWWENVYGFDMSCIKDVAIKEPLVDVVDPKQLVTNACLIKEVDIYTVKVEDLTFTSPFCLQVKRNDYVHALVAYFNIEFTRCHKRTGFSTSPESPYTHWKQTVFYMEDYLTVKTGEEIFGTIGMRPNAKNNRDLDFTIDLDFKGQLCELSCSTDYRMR

IC50 (PRMT1) [nM]	Structure (SMILES)	IC50 (Toledo cells) [nM]	EC30 (MMA in RKO cells) [nM]
< 50	CNCCN(C)Cc1ccccc1[C@H]1CC[C@@]2(CCCOC2)CC1 [P053]	< 1000	250 to 2500
< 50	CCOCC1CC=C(c2ccccc2CN(C)CCNC)CC1 (stereo not drawn) [P054]	< 1000	< 250
< 50	CNCCN(C)Cc1ccccc1[C@H]1CC[C@H](OC(C)C)CC1 [P056]	< 1000	250 to 2500
< 50	CNCCN(C)Cc1ccccc1[C@H]1CC[C@@H](OC(C)C)CC1 [P057]	< 1000	250 to 2500
< 50	CNCCN(C)Cc1ccccc1C1CCN(c2ccc(C(F)(F)F)cc2)CC1 [P069]	< 1000	250 to 2500
< 50	CNCCN(C)Cc1ncccc1C1CCN(CCc2ccccc2)CC1 [P074]	< 1000	250 to 2500
< 50	CNCCN(C)Cc1ncccc1C1CCc2ccccc2CC1 [P075]	< 1000	250 to 2500
< 50	CNCCN(C)Cc1ncccc1C1CCN(c2cccc(C(F)F)c2)CC1 [P078]	< 1000	< 250
< 50	CNCCN(C)Cc1ncccc1C1CCN(c2cc(C)cc(C)c2)CC1 [P079]	< 1000	< 250
50 to 500	CNCCN(C)Cc1nc(C)ccc1C1CCN(c2cccc(C)c2)CC1 [P080]	< 1000	250 to 2500
< 50	CNCCN(C)Cc1ccc(C)nc1C1CCN(c2cccc(C)c2)CC1 [P081, N^1,N^2-dimethyl-N1-((6-methyl-2-(1-(m-tolyl)piperidin-4-yl)pyridin-3-yl)methyl)ethane-1,2-diamine]	< 1000	< 250
< 50	CNCCN(C)Cc1ccc(C(C)O)cc1C1CCN(c2cccc(C)c2)CC1 (stereo not drawn) [P083]	< 1000	< 250
< 50	CNCCN(C)Cc1ncccc1C1CCN(c2cc(C)cc(F)c2)CC1 [P085]	< 1000	< 250
< 50	CNCCN(C)Cc1ncccc1N1CCc2ccc(C(F)(F)F)cc2CC1 [P088, N^1,N^2-dimethyl-N^1-((3-(7-(trifluoromethyl)-4,5-dihydro-1H-benzo[d]azepin-3(2H)-yl)pyridin-2-yl)methyl)ethane-1,2-diamine]	< 1000	250 to 2500
< 50	CNCCN(C)Cc1ncccc1C1CCN(c2cccc(Cl)c2)CC1 [P089]	< 1000	< 250
< 50	CNCCN(C)Cc1ncccc1C1CCN(c2cccc(C)c2)CC1 [P094]	< 1000	< 250
< 50	CNCCN(C)Cc1ncccc1C1CCN(c2ccccc2C)CC1 [P095]	< 1000	< 250
< 50	CNCCN(C)Cc1ncccc1N1CCc2cc(F)cc(F)c2CC1 [P106]	< 1000	250 to 2500
< 50	CNCCN(C)Cc1ncccc1N1CCc2cc(F)c(F)cc2CC1 [P107]	< 1000	250 to 2500
< 50	CNCCN(C)Cc1ncccc1N1CCc2ccccc2C(C)C1 (stereo not drawn) [P112]	< 1000	250 to 2500
< 50	CCOCC1(COCC)CCC(c2ccccc2CN(C)CCNC)CC1 [P114]	< 1000	< 250
50 to 500	CNCCN(C)Cc1ncccc1N1CCC(Oc2cc(C(F)(F)F)cc(C(F)(F)F)c2)CC1 [P122]	< 1000	> 2500
< 50	CNCCN(C)Cc1ncccc1N1CCC(COc2ccc(C(F)(F)F)cc2)CC1 [P130]	< 1000	250 to 2500
< 50	CNCCN(C)Cc1ncccc1N1CCC(COc2cccc(C(F)(F)F)c2)CC1 [P131]	< 1000	250 to 2500
< 50	CCOCC1(COCC)CCN(c2ccccc2CN(C)CCNC)CC1 [P136]	< 1000	250 to 2500

IC50 (PRMT1) [nM]	Structure (SMILES)	IC50 (Toledo cells) [nM]	EC30 (MMA in RKO cells) [nM]
< 50	CNCCN(C)Cc1ncccc1N1CCC(Oc2cc(F)cc(C(F)(F)F)c2)CC1 [P137]	< 1000	250 to 2500
< 50	CNCCN(C)Cc1ncccc1N1CCC(Oc2cccc(C(F)(F)F)c2)CC1 [P141]	< 1000	250 to 2500
< 50	CNCCN(C)Cc1ncccc1N1CCC(Oc2ccc(C(F)(F)F)cc2)CC1 [P142]	< 1000	250 to 2500
< 50	CNCCN(C)Cc1ncccc1C1CCN(c2cccc(OC(F)(F)F)c2)CC1 [P143]	< 1000	250 to 2500
< 50	CNCCN(C)Cc1ncccc1N1CCC(Oc2cccc(C(F)F)c2)CC1 [P147]	< 1000	250 to 2500
< 50	CNCCN(C)Cc1ncccc1N1CCC(Oc2cc(C)cc(C)c2)CC1 [P148]	< 1000	250 to 2500
< 50	CNCCN(C)Cc1ncccc1N1CCC(C)(COc2ccccc2)CC1 [P149]	< 1000	250 to 2500
< 50	CNCCN(C)Cc1ccc(-c2cn[nH]c2)cc1C1CCN(c2cccc(C)c2)CC1 [P153]	< 1000	< 250
< 50	CNCCN(C)Cc1ncccc1[C@H]1CC[C@]2(CC1)COC(C)(C)C2 [P157]	< 1000	250 to 2500
< 50	CNCCN(C)Cc1ncccc1[C@H]1CC[C@@]2(CC1)COC(C)(C)C2 [P158]	< 1000	< 250
< 50	CNCCN(C)Cc1ncccc1N1CCC(COc2ccccc2)CC1 [P165]	< 1000	250 to 2500
< 50	CNCCN(C)Cc1ccc2[nH]ncc2c1C1CCc2cc(F)c(F)cc2CC1 [P167, N1-((4-(2,3-difluoro-6,7,8,9-tetrahydro-5H-benzo[7]cyclopenten-7-yl)-1H-indazol-5-yl)methyl)-N1,N2-dimethylethane-1,2-diamine]	< 1000	< 250
< 50	CNCCN(C)Cc1ncccc1C1CCN(c2ccccc2OC)CC1 [P170]	< 1000	250 to 2500
< 50	CNCCN(C)Cc1ncccc1N1CCC(Oc2cccc(C)c2)CC1 [P171]	< 1000	250 to 2500
< 50	CNCCN(C)Cc1ncccc1N1CCC(Oc2cccc(F)c2)CC1 [P179]	< 1000	250 to 2500
50 to 500	CCOCC1(Oc2cccc(C(F)(F)F)c2)CCN(c2cccnc2CN(C)CCNC)CC1 [P184]	< 1000	> 2500
< 50	CNCCN(C)Cc1ncccc1N1CCC(Oc2ccccc2)CC1 [P185]	< 1000	250 to 2500
< 50	CNCCN(C)Cc1ncccc1N1CCc2ccc(OC)cc2CC1 [P186]	< 1000	250 to 2500
< 50	CNCCN(C)Cc1ncccc1C1CCN(c2ccc(C#N)c(C)c2)CC1 [P187]	< 1000	< 250
< 50	CNCCN(C)Cc1ccc(N)nc1C1CCc2cc(F)c(F)cc2CC1 [P198]	< 1000	< 250
< 50	CNCCN(C)Cc1ncccc1C1CCN(c2ccc(C#N)cc2)CC1 [P202]	< 1000	250 to 2500
50 to 500	CCOCC1(COCC)CCC(c2cnccc2CN(C)CCNC)CC1 [P206]	1000 to 5000	250 to 2500
< 50	CCOCC1(COCC)CCC(c2ncccc2CN(C)CCNC)CC1 [P208]	< 1000	250 to 2500
< 50	CNCCN(C)Cc1ncccc1N1CCc2ccc(C#N)cc2CC1 [P225]	< 1000	< 250
